Measured values taken from the CheMixHub viscosity set.

Assay: xn = mol fraction of the nth substance listed

CCCCCCCCCCCCCC[P+](CCCCCC)(CCCCCC)CCCCCC.c1nnc[n-]1 + COCCOCCOCCOCCOC
viscosity [mPa·s], 100 kPa
Settings | x1 = 0.418 | x1 = 0.516 | x1 = 0.61 | x1 = 0.694 | x1 = 0.751 | x1 = 0.804 | x1 = 0.874 | x1 = 0.954
293.15 K | 66 | 111 | 167 | 272 | 360 | 508 | 679 | 994
298.15 K | 53 | 88 | 128 | 208 | 269 | 374 | 491 | 706
303.15 K | – | 70 | 101 | 162 | 205 | 281 | 364 | 512
308.15 K | – | 57 | 81 | 129 | 160 | 217 | 275 | 382
313.15 K | – | – | 66 | 104 | 126 | 169 | 212 | 289
318.15 K | – | – | 54 | 86 | 102 | 135 | 166 | 223
323.15 K | – | – | – | 71 | 83 | 109 | 133 | 176

O=C1CCCCC1 + COc1ccccc1
viscosity [mPa·s], 101.33 kPa
Settings | x1 = 0.1002 | x1 = 0.2031 | x1 = 0.303 | x1 = 0.402 | x1 = 0.5032 | x1 = 0.6017 | x1 = 0.7 | x1 = 0.7976 | x1 = 0.8978
298.15 K | 1.048 | 1.096 | 1.131 | 1.194 | 1.245 | 1.331 | 1.44 | 1.558 | 1.732
303.15 K | 0.968 | 1.004 | 1.044 | 1.092 | 1.151 | 1.22 | 1.304 | 1.421 | 1.578
308.15 K | 0.905 | 0.93 | 0.966 | 1.012 | 1.06 | 1.127 | 1.207 | 1.306 | 1.444

CC(=O)CC(C)C + CS(C)=O
303.15 K, 101 kPa
Settings | viscosity [mPa·s]
x2 = 0.1332 | 0.6376
x2 = 0.257 | 0.7283
x2 = 0.3722 | 0.8149
x2 = 0.4798 | 0.9229
x2 = 0.5804 | 1.042
x2 = 0.6748 | 1.16
x2 = 0.7635 | 1.306

O=C(OCc1ccccc1)c1ccccc1O + CS(C)=O
303.15 K, 101 kPa
Settings | viscosity [mPa·s]
x1 = 0.079 | 2.299
x1 = 0.1284 | 2.529
x1 = 0.1867 | 2.933
x1 = 0.2564 | 3.273
x1 = 0.3413 | 3.776
x1 = 0.4467 | 4.342
x1 = 0.5812 | 4.995

O=C1CCCCC1 + CS(C)=O
303.15 K, 101 kPa
Settings | viscosity [mPa·s]
x2 = 0.099 | 1.721
x2 = 0.1791 | 1.669
x2 = 0.2687 | 1.649
x2 = 0.3683 | 1.648
x2 = 0.4653 | 1.657
x2 = 0.5628 | 1.675
x2 = 0.6679 | 1.698
x2 = 0.7877 | 1.725
x2 = 0.8903 | 1.755

CC(=O)CC(C)C + Cc1ccc(C)cc1
298.15 K, 101 kPa
Settings | viscosity [mPa·s]
x1 = 0.1409 | 0.59
x1 = 0.226 | 0.583
x1 = 0.3369 | 0.576
x1 = 0.4463 | 0.569
x1 = 0.5673 | 0.563
x1 = 0.6366 | 0.559
x1 = 0.8014 | 0.551
x1 = 0.9061 | 0.546

O=C1CCCCC1 + Cc1ccc(C)cc1
viscosity [mPa·s], 101.33 kPa
Settings | x1 = 0.1013 | x1 = 0.2048 | x1 = 0.3016 | x1 = 0.4023 | x1 = 0.5186 | x1 = 0.6081 | x1 = 0.7034 | x1 = 0.7967 | x1 = 0.9005
298.15 K | 0.655 | 0.702 | 0.762 | 0.834 | 0.938 | 1.04 | 1.194 | 1.35 | 1.617
303.15 K | 0.612 | 0.657 | 0.711 | 0.777 | 0.871 | 0.965 | 1.088 | 1.237 | 1.481
308.15 K | 0.574 | 0.618 | 0.667 | 0.728 | 0.819 | 0.897 | 1.01 | 1.144 | 1.354

CC(=O)CC(C)C + Cc1ccccc1
298.15 K, 101 kPa
Settings | viscosity [mPa·s]
x1 = 0.1094 | 0.545
x1 = 0.207 | 0.541
x1 = 0.3183 | 0.539
x1 = 0.4196 | 0.538
x1 = 0.5357 | 0.537
x1 = 0.6441 | 0.544
x1 = 0.7653 | 0.539
x1 = 0.8774 | 0.541

CC(C)CC(C)(C)C + Cc1ccccc1
101 kPa
Settings | viscosity [mPa·s]
298.15 K, x1 = 0.1138 | 0.519
298.15 K, x1 = 0.2032 | 0.498
298.15 K, x1 = 0.2796 | 0.485
298.15 K, x1 = 0.3319 | 0.477
298.15 K, x1 = 0.4044 | 0.47
298.15 K, x1 = 0.4365 | 0.467
298.15 K, x1 = 0.4983 | 0.464
298.15 K, x1 = 0.618 | 0.459
298.15 K, x1 = 0.6934 | 0.458
298.15 K, x1 = 0.7315 | 0.461
298.15 K, x1 = 0.8036 | 0.463
298.15 K, x1 = 0.8966 | 0.467
298.15 K, x1 = 0.9292 | 0.47
298.15 K, x1 = 0.9743 | 0.474
308.15 K, x1 = 0.0644 | 0.4877
308.15 K, x1 = 0.1217 | 0.4728
308.15 K, x1 = 0.1933 | 0.4593
308.15 K, x1 = 0.2715 | 0.4474
308.15 K, x1 = 0.3689 | 0.4362
308.15 K, x1 = 0.4483 | 0.4305
308.15 K, x1 = 0.5805 | 0.4258
308.15 K, x1 = 0.6997 | 0.425
308.15 K, x1 = 0.8297 | 0.4265

CCC(C)N (stereo unspecified) + Cc1ccccc1
303.15 K, 101 kPa
Settings | viscosity [mPa·s]
x2 = 0.1499 | 0.4062
x2 = 0.216 | 0.4085
x2 = 0.2959 | 0.4124
x2 = 0.3889 | 0.419
x2 = 0.5124 | 0.4325
x2 = 0.613 | 0.4492
x2 = 0.7105 | 0.4679
x2 = 0.8708 | 0.4998

CCCCCCO + Cc1ccccc1
viscosity [mPa·s], 101 kPa
Settings | x2 = 0.1151 | x2 = 0.2265 | x2 = 0.3342 | x2 = 0.4384 | x2 = 0.5394 | x2 = 0.6372 | x2 = 0.7321 | x2 = 0.8241 | x2 = 0.9133
303.15 K | 2.859 | 2.167 | 1.692 | 1.351 | 1.099 | 0.882 | 0.7364 | 0.6235 | 0.5592
313.15 K | 2.206 | 1.701 | 1.341 | 1.097 | 0.9164 | 0.7593 | 0.6439 | 0.5569 | 0.5069
323.15 K | 1.661 | 1.321 | 1.057 | 0.8845 | 0.7532 | 0.6516 | 0.5418 | 0.4674 | 0.4336

CCOCC + Cc1ccccc1
viscosity [mPa·s], 101 kPa
Settings | 293.15 K | 298.15 K | 303.15 K | 308.15 K
x2 = 0.21 | 0.3 | 0.29 | 0.281 | 0.272
x2 = 0.45 | 0.379 | 0.36 | 0.345 | 0.331
x2 = 0.71 | 0.468 | 0.445 | 0.419 | 0.404

O=C1CCCCC1 + Cc1ccccc1
viscosity [mPa·s]
Settings | 298.15 K | 303.15 K | 308.15 K
101 kPa, x1 = 0.1059 | 0.615 | – | –
101 kPa, x1 = 0.2177 | 0.682 | – | –
101 kPa, x1 = 0.3103 | 0.74 | – | –
101 kPa, x1 = 0.4166 | 0.829 | – | –
101 kPa, x1 = 0.5047 | 0.884 | – | –
101 kPa, x1 = 0.6049 | 0.971 | – | –
101 kPa, x1 = 0.7171 | 1.218 | – | –
101 kPa, x1 = 0.7943 | 1.333 | – | –
101 kPa, x1 = 0.9041 | 1.574 | – | –
101 kPa, x2 = 0.1021 | – | 1.396 | –
101 kPa, x2 = 0.202 | – | 1.218 | –
101 kPa, x2 = 0.3024 | – | 1.068 | –
101 kPa, x2 = 0.4051 | – | 0.9428 | –
101 kPa, x2 = 0.4964 | – | 0.8546 | –
101 kPa, x2 = 0.6017 | – | 0.753 | –
101 kPa, x2 = 0.6963 | – | 0.6911 | –
101 kPa, x2 = 0.8022 | – | 0.6292 | –
101.33 kPa, x1 = 0.1032 | 0.61 | 0.573 | 0.543
101.33 kPa, x1 = 0.1997 | 0.668 | 0.625 | 0.59
101.33 kPa, x1 = 0.3024 | 0.738 | 0.689 | 0.648
101.33 kPa, x1 = 0.4055 | 0.824 | 0.767 | 0.721
101.33 kPa, x1 = 0.504 | 0.922 | 0.854 | 0.799
101.33 kPa, x1 = 0.602 | 1.043 | 0.972 | 0.903
101.33 kPa, x1 = 0.7012 | 1.194 | 1.103 | 1.02
101.33 kPa, x1 = 0.7999 | 1.391 | 1.273 | 1.183
101.33 kPa, x1 = 0.9027 | 1.654 | 1.505 | 1.382

CCCCCC(=O)O + ClC(Cl)(Cl)Cl
298.15 K, 101 kPa
Settings | viscosity [mPa·s]
x1 = 0.07 | 0.966
x1 = 0.13 | 1.033
x1 = 0.19 | 1.108
x1 = 0.25 | 1.188
x1 = 0.47 | 1.548
x1 = 0.57 | 1.743
x1 = 0.67 | 1.927
x1 = 0.84 | 2.343

CC(=O)CC(C)C + ClC(Cl)Cl
298.15 K, 101 kPa
Settings | viscosity [mPa·s]
x2 = 0.0813 | 0.5611
x2 = 0.1599 | 0.5799
x2 = 0.2352 | 0.5986
x2 = 0.3916 | 0.6341
x2 = 0.497 | 0.6494
x2 = 0.6114 | 0.6521
x2 = 0.7252 | 0.6349
x2 = 0.864 | 0.5903
x2 = 0.9291 | 0.5613

CCOCC + ClC(Cl)Cl
101.33 kPa
Settings | viscosity [mPa·s]
293.15 K, x2 = 0.1704 | 0.295
293.15 K, x2 = 0.2909 | 0.354
293.15 K, x2 = 0.4425 | 0.416
293.15 K, x2 = 0.562 | 0.466
293.15 K, x2 = 0.6848 | 0.507
293.15 K, x2 = 0.8038 | 0.536
293.15 K, x2 = 0.8989 | 0.555
298.15 K, x1 = 0.274 | 0.472
298.15 K, x1 = 0.528 | 0.397
298.15 K, x1 = 0.672 | 0.34
298.15 K, x1 = 0.863 | 0.268
298.15 K, x2 = 0.1567 | 0.282
298.15 K, x2 = 0.3094 | 0.343
298.15 K, x2 = 0.4329 | 0.395
298.15 K, x2 = 0.5582 | 0.445
298.15 K, x2 = 0.6897 | 0.489
298.15 K, x2 = 0.8073 | 0.519
298.15 K, x2 = 0.8947 | 0.536

CCOCC + ClCCl
298.15 K, 101 kPa
Settings | viscosity [mPa·s]
x1 = 0.113 | 0.4351
x1 = 0.2227 | 0.4106
x1 = 0.3294 | 0.3839
x1 = 0.4331 | 0.3585
x1 = 0.5341 | 0.3342
x1 = 0.6322 | 0.3106
x1 = 0.7278 | 0.289
x1 = 0.8209 | 0.2687
x1 = 0.9116 | 0.2496

CCOCC + Nc1ccccc1
298.15 K, 101 kPa
Settings | viscosity [mPa·s]
x1 = 0.3027 | 1.359
x1 = 0.5488 | 0.669
x1 = 0.7838 | 0.38

Cc1cccc[n+]1CCCO.[Cl-] + O
viscosity [mPa·s], 100 kPa
Settings | x1 = 0.0008999 | x1 = 0.001798 | x1 = 0.003589 | x1 = 0.005379 | x1 = 0.007153 | x1 = 0.00892
293.15 K | 1.041 | 1.068 | 1.116 | 1.161 | 1.203 | 1.243
298.15 K | 0.922 | 0.945 | 0.987 | 1.026 | 1.063 | 1.098
303.15 K | 0.822 | 0.841 | 0.877 | 0.911 | 0.943 | 0.974
308.15 K | 0.739 | 0.756 | 0.788 | 0.818 | 0.846 | 0.874
313.15 K | 0.668 | 0.682 | 0.709 | 0.736 | 0.761 | 0.786
